Assay results reported in patent publication US12612386B2, “Heteroaryl-triazole compounds as pesticides” (Bayer Aktiengesellschaft, priority 2020, dated 2026).

Columns and labels:
Assay type in all cases: in vivo
[1] = tested on: larvae of the southern green stink bug (Nezara viridula); assay: whole plant or invertebrate; conditions: 96 h
Method: Nezara viridula—Spray Test
(§1) • Solvent: 78.0 parts by weight of acetone • 1.5 parts by weight of dimethylformamide • Emulsifier: alkylarylpolyglycol ether
(§2) To produce a suitable preparation of active compound, 1 part by weight of active compound is mixed with the stated amount of solvent, and the concentrate is diluted with water, containing an emulsifier concentration of 1000 ppm, to the desired concentration. Further test concentrations are prepared by dilution with emulsifier containing water.
Barley plants (Hordeum vulgare) are sprayed with a test solution containing the desired concentration of the active ingredient and are infested with larvae of the southern green stink bug (Nezara viridula).
After 4 days mortality in % is determined. 100% means all the stink bugs have been killed; 0% means none of the stink bugs have been killed.

[2] = tested on: brown planthopper (Nilaparvata lugens); assay: Nilaparvata lugens spray test; conditions: 96 h
Method: Nilaparvata lugens—Spray Test
as §1
(§3) To produce a suitable preparation of active compound, 1 part by weight of active compound is mixed with the stated amount of solvents and is diluted with water, containing an emulsifier concentration of 1000 ppm, to the desired concentration. Further test concentrations are prepared by dilution with emulsifier containing water.
Rice plants (Oryza sativa) are sprayed with a preparation of the active ingredient of the desired concentration and the plants are infested with the brown planthopper (Nilaparvata lugens).
After 4 days mortality in % is determined. 100% means all planthoppers have been killed and 0% means none of the planthoppers have been killed.

[3] = tested on: larvae of the banded cucumber beetle (Diabrotica balteata); assay: Diabrotica balteata spray test; conditions: 168 h, 100 g/ha (=32 μg/well), after 7 days, read-out: efficacy (seedling growth)
Method: Diabrotica balteata—Spray Test
as §1, §2
Soaked wheat seeds (Triticum aestivum) are placed in a multiple well plate filled with agar and some water and are incubated for 1 day to germinate (5 seeds per well). The germinated wheat seeds are sprayed with a test solution containing the desired concentration of the active ingredient. Afterwards each unit is infected with 10-20 larvae of the banded cucumber beetle (Diabrotica balteata).
After 7 days efficacy in % is determined. 100% means all the seedlings have grown up like in the untreated, uninfected control; 0% means none of the seedlings have grown.

[4] = tested on: fall armyworm larvae (Spodoptera frugiperda); assay: whole plant or invertebrate; conditions: 168 h
Method: Spodoptera frugiperda—Spray Test
(§4) • Solvent: 78.0 parts by weight acetone • 1.5 parts by weight dimethylformamide • Emulsifier: alkylarylpolyglycol ether
as §3
Maize (Zea mays) leaf sections are sprayed with a preparation of the active ingredient of the desired concentration. Once dry, the leaf sections are infested with fall armyworm larvae (Spodoptera frugiperda).
After 7 days mortality in % is determined. 100% means all caterpillars have been killed and 0% means none of the caterpillars have been killed.
Spodoptera frugiperda—Spray Test (SPODFR)
After the specified period of time, mortality in % is determined. 100% means all caterpillars have been killed and 0% means none of the caterpillars have been killed.

[5] = tested on: green peach aphid (Myzus persicae); assay: Myzus persicae spray test (MYZUPE); conditions: 120 h; for mortality at 100 g/ha: after 5 days
Method: Myzus persicae—Spray Test
• Solvent: 78.0 parts by weight acetone • 1.5 parts by weight dimethylformamide • Emulsifier: alkylarylpoly glycol ether
as §3
Chinese cabbage (Brassica pekinensis) leaf disks infected with all instars of the green peach aphid (Myzus persicae), are sprayed with a preparation of the active ingredient of the desired concentration.
After 5 days mortality in % is determined. 100% means all aphids have been killed and 0% means none of the aphids have been killed.
Myzus persicae—Spray Test (MYZUPE)
as §4
After the specified period of time, mortality in % is determined. 100% means all aphids have been killed and 0% means none of the aphids have been killed.

Row | SMILES | mortality at 100 g/ha [1] | mortality at 500 g/ha [1] | mortality at 500 g/ha [2] | pest or weed control at 32 µg/disc, 100 g/ha [3] | mortality at 100 g/ha [4] | mortality at 100 g/ha [5] | Emax at 4 g/ha ([5]; MYZUPE, 4 g ai/ha, 5 dat (Table 4), read-out: % Efficacy) | Emax at 20 g/ha ([5]; MYZUPE, 20 g ai/ha, 5 dat (Table 4), read-out: % Efficacy) | Emax at 100 g/ha ([5]; MYZUPE, 100 g ai/ha, 5 dat (Table 4), read-out: % Efficacy) | Emax at 20 g/ha ([4]; SPODFR, 20 g ai/ha, 7 dat (Table 4), read-out: % Efficacy) | Emax at 100 g/ha ([4]; SPODFR, 100 g ai/ha, 7 dat (Table 4), read-out: % Efficacy)
1 | C[C@H](NC(=O)c1cc(C#N)cc(C#N)c1)c1ncnn1-c1cc(C(N)=O)ncn1 [I-126] | 100% | 100% | 100% |  |  |  |  |  |  |  | 
2 | CNC(=O)c1cc(-n2ncnc2[C@H](C)NC(=O)c2cc(Br)cc(OC(F)(F)C(F)F)c2)ncn1 [I-122] |  | 100% | 100% | 100% | 100% |  |  |  |  |  | 
3 | Cc1nc([C@H](C)NC(=O)c2cc(C(F)(F)F)cc(C(F)(F)F)c2)n(-c2cc(C(=O)N(C)C)ncn2)n1 [I-130] |  | 100% | 100% | 100% | 100% |  |  |  |  |  | 
4 | C[C@H](NC(=O)c1cc(OC(F)(F)F)cc(S(C)(=O)=O)c1)c1nc(C2CC2)nn1-c1cc(C(=O)N(C)C)ncn1 [I-154] |  | 100% | 100% |  | 100% | 90% |  |  |  |  | 
5 | C[C@H](NC(=O)c1cc(OC(F)(F)F)cc(C(C)(C)F)c1)c1ncnn1-c1cc(C#N)ncn1 [I-142] |  | 100% | 100% | 100% | 100% | 100% |  |  |  |  | 
6 | Cc1nc([C@H](C)NC(=O)c2cc(C#N)cc(C#N)c2)n(-c2cc(C(N)=O)ncn2)n1 [I-128] | 100% | 100% | 100% | 100% |  |  |  |  |  |  | 
7 | C[C@H](NC(=O)c1cc(C(F)F)cc(C(F)F)c1)c1ncnn1-c1cc(C(N)=O)ncn1 [I-133] |  |  | 100% | 100% | 100% | 100% |  |  |  |  | 
8 | Cc1nc([C@H](C)NC(=O)c2cc(OC(F)(F)F)cc(S(C)(=O)=O)c2)n(-c2cc(C(N)=O)ncn2)n1 [I-32] | 90% | 100% | 90% |  | 100% | 90% |  |  |  |  | 
9 | C[C@H](NC(=O)c1cc(Cl)cc(S(=O)(=O)C(F)(F)F)c1)c1ncnn1-c1cc(C(N)=O)ncn1 [I-84] |  | 100% |  | 100% | 100% | 90% | 90% | 100% | 90% | 100% | 100%
10 | C[C@H](NC(=O)c1cc(OC(F)(F)F)cc(S(=O)(=O)C(F)(F)F)c1)c1ncnn1-c1cc(C(N)=O)ncn1 [I-58] |  | 100% |  | 100% | 100% | 90% |  |  |  |  | 
11 | Cc1nc([C@H](C)NC(=O)c2cc(Br)cc(OC(F)(F)F)c2)n(-c2cc(C(N)=O)ncn2)n1 [I-12] |  | 100% |  | 100% | 100% | 90% |  |  |  |  | 
12 | C[C@H](NC(=O)c1cccc(I)c1)c1ncnn1-c1cc(C(N)=O)ncn1 [I-48] |  | 100% |  | 100% | 100% | 90% |  |  |  |  | 
13 | Cc1nc([C@H](C)NC(=O)c2cc(C(F)(F)F)cc(S(C)(=O)=O)c2)n(-c2cc(C#N)ncn2)n1 [I-23] |  | 100% | 100% | 100% |  |  |  |  |  |  | 
14 | C[C@H](NC(=O)c1cccc(F)c1)c1ncnn1-c1cc(C(N)=O)ncn1 [I-44] | 100% | 100% | 100% | 100% |  |  |  |  |  |  | 
15 | C[C@H](NC(=O)c1cc(C(F)F)cc(C(F)F)c1)c1ncnn1-c1cc(C(=O)N(C)C)ncn1 [I-139] |  | 100% | 100% | 100% |  | 100% |  |  |  |  | 
16 | CC(C)N(C)C(=O)c1nccc(-n2ncnc2[C@H](C)NC(=O)c2cc(OC(F)(F)F)cc(OC(F)(F)F)c2)n1 [I-115] |  |  | 90% | 80% | 100% | 90% |  |  |  |  | 
17 | CNC(=O)c1cc(-n2nc(C)nc2[C@H](C)NC(=O)c2cc(OC(F)F)cc(OC(F)F)c2)ncn1 [I-99] |  | 100% |  | 100% | 100% | 90% |  |  |  |  | 
18 | CNC(=O)c1cc(-n2ncnc2[C@H](C)NC(=O)c2cc(C(F)F)cc(C(F)F)c2)ncn1 [I-134] |  |  | 100% | 100% | 100% | 90% |  |  |  |  | 
19 | CNC(=O)c1cc(-n2ncnc2[C@H](C)NC(=O)c2cc(Cl)cc(S(C)(=O)=O)c2)ncn1 [I-60] |  | 100% | 100% | 100% |  | 90% |  |  |  |  | 
20 | CNC(=O)c1cc(-n2nc(C)nc2[C@H](C)NC(=O)c2cc(Br)cc(OC(F)F)c2)ncn1 [I-88] |  | 100% |  | 100% | 100% | 100% |  |  |  |  | 
21 | Cc1nc([C@H](C)NC(=O)c2cc(Cl)cc(S(C)(=O)=O)c2)n(-c2cc(C(N)=O)ncn2)n1 [I-61] |  | 100% | 90% |  |  |  |  |  |  |  | 
22 | C[C@H](NC(=O)c1cc(I)cc(OC(F)F)c1)c1ncnn1-c1cc(C(N)=O)ncn1 [I-162] |  | 100% |  | 100% | 100% | 90% |  |  |  |  | 
23 | C[C@H](NC(=O)c1cc(Cl)cc(S(C)(=O)=O)c1)c1ncnn1-c1cc(C(N)=O)ncn1 [I-59] |  | 100% | 100% | 100% |  | 90% |  |  |  |  | 
24 | Cc1nc([C@H](C)NC(=O)c2cc(S(=O)(=O)C(F)(F)F)cc(S(=O)(=O)C(F)(F)F)c2)n(-c2cc(C#N)ncn2)n1 [I-29] |  |  | 100% | 100% | 100% |  |  |  |  |  | 
25 | C[C@H](NC(=O)c1cc(F)cc(C#N)c1)c1ncnn1-c1cc(C(N)=O)ncn1 [I-77] |  | 100% | 100% | 100% |  | 100% |  |  |  |  | 
